Reference: ChEMBL document CHEMBL1177782, “Synthesis and biological evaluation of oxazole derivatives as T-type calcium channel blockers” (Bioorg Med Chem Lett, 2010)

Experiments:
[1] = target: T1, Voltage-dependent T-type calcium channel subunit alpha-1G (Homo sapiens, UniProt O43497); assay: Inhibition of T-type CaV3.1 channel expressed in HEK293 cells assessed as inhibition of calcium current at 10 uM by fluorescence based HTS FDSS6000 assay; type: cell-based
[2] = target: T1, Voltage-dependent T-type calcium channel subunit alpha-1G; assay: Inhibition of T-type CaV3.1 channel expressed in HEK293 cells assessed as inhibition of calcium current by automated patch-clamp assay; type: cell-based

T1 sequence (O43497 whole entry): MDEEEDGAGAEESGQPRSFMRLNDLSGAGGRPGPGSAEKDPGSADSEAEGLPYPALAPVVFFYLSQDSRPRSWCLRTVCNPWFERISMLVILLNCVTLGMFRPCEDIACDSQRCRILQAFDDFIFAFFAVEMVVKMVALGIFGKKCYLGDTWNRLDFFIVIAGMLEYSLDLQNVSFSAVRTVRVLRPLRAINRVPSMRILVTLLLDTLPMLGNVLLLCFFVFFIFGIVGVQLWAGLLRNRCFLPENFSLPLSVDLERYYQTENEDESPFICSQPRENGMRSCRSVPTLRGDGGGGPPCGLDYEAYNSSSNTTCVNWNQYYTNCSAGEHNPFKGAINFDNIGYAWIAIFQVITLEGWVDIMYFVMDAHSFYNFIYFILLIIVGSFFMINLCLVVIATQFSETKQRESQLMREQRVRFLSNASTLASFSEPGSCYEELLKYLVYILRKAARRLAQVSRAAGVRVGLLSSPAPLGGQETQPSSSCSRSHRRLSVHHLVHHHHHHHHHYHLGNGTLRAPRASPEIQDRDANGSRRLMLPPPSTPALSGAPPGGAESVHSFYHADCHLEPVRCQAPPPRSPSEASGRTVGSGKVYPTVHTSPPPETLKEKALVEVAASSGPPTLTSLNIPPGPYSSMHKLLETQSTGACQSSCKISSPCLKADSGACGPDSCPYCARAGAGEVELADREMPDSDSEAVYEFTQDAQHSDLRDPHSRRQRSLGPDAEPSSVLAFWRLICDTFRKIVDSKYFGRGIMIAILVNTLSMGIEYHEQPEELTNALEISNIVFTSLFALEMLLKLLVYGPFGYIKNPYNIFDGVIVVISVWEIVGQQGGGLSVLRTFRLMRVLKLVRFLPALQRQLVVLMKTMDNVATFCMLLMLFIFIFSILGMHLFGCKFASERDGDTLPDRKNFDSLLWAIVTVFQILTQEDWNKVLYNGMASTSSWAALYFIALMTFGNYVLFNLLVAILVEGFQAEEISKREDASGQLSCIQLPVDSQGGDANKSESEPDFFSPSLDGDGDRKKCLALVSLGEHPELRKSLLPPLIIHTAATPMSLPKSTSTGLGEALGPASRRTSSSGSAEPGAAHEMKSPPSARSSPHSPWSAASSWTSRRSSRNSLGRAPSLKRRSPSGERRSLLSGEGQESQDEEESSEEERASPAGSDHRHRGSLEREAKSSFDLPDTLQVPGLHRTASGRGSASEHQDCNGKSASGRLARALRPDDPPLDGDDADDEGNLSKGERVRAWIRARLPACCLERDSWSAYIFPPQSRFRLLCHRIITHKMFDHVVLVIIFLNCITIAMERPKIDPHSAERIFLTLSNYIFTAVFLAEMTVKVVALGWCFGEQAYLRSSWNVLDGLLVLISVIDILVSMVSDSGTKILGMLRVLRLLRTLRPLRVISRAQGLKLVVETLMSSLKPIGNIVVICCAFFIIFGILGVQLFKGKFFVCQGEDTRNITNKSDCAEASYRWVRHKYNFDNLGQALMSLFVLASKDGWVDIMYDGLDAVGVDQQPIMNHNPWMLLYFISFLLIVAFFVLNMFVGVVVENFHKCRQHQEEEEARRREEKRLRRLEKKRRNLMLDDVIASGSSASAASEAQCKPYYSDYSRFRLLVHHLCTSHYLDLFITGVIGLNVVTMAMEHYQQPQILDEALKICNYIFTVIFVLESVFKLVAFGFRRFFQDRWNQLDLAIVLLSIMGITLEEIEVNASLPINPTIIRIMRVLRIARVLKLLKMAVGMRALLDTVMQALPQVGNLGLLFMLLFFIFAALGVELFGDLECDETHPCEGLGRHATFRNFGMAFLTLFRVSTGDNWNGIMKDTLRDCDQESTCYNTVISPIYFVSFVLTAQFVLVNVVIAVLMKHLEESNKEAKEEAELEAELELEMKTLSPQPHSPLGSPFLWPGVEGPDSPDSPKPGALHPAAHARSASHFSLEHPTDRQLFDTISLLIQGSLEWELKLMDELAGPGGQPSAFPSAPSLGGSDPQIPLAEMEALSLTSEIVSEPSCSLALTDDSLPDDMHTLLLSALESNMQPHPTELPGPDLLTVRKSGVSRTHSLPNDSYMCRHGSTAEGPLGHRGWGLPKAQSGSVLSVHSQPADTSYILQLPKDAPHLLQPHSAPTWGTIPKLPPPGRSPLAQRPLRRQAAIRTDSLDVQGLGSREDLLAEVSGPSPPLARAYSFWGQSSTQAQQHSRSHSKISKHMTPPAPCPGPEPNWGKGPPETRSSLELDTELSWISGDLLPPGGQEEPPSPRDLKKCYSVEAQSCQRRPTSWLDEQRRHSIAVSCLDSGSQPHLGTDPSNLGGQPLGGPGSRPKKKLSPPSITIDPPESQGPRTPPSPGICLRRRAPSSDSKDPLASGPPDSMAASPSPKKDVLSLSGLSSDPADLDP

inhibition [1] | IC50 [2] | Structure (SMILES)
41% | – | CCCc1nc(-c2ccccc2)c(CNCCCN2CCN(c3ccccc3OC)CC2)o1
38.1% | – | Cc1nc(-c2ccccc2)c(CNCCCN2CCN(c3ccc(Cl)cc3)CC2)o1
54.6% | 2100 nM | CCCc1nc(-c2ccccc2)c(CNCCN2CCN(c3ccccc3C(F)(F)F)CC2)o1
42.1% | – | CCCc1nc(-c2ccccc2)c(CNCCCN2CCN(c3ccc(OC)cc3)CC2)o1
48.1% | – | CCCc1nc(-c2ccccc2)c(CNCCN2CCN(c3ccc(C)cc3)CC2)o1
55.2% | 1780 nM | CCCc1nc(-c2ccccc2)c(CNCCCN2CCN(c3cccc(C)c3C)CC2)o1
71.8% | 7470 nM | CCCc1nc(-c2ccccc2)c(CNCCN2CCN(C(c3ccccc3)c3ccccc3)CC2)o1
45% | – | CCCc1nc(-c2ccccc2)c(CNCCCN2CCN(c3ccccc3C(F)(F)F)CC2)o1
51.6% | 7250 nM | CCCc1nc(-c2ccccc2)c(CNCCCN2CCN(c3ccc(C(F)(F)F)cc3)CC2)o1
47.8% | 1190 nM | CCCc1nc(-c2ccccc2)c(CNCCCN2CCN(c3cccc(C)c3)CC2)o1
51.6% | 650 nM | CCCc1nc(-c2ccccc2)c(CNCCCN2CCN(c3cccc(C(F)(F)F)c3)CC2)o1
64.3% | 2220 nM | CCCc1nc(-c2ccccc2)c(CNCCN2CCN(c3ccc(C)cc3C)CC2)o1
39.7% | – | CCCc1nc(-c2ccccc2)c(CNCCN2CCN(c3ccccc3OC)CC2)o1
43.7% | – | CCCc1nc(-c2ccccc2)c(CNCCCN2CCN(c3ccccc3)CC2)o1
54.1% | 7080 nM | CCCc1nc(-c2ccccc2)c(CNCCN2CCN(c3ccc(F)cc3)CC2)o1
54.4% | 16100 nM | CCCc1nc(-c2ccccc2)c(CNCCCN2CCN(c3ccccc3F)CC2)o1
62.5% | 3210 nM | CCCc1nc(-c2ccccc2)c(CNCCCN2CCN(c3ccc(F)cc3)CC2)o1
63.2% | 1310 nM | CCCc1nc(-c2ccccc2)c(CNCCCN2CCN(c3ccc(Cl)cc3)CC2)o1
51.2% | 1450 nM | CCCc1nc(-c2ccccc2)c(CNCCN2CCN(c3cccc(Cl)c3)CC2)o1
64.7% | 2800 nM | CCCc1nc(-c2ccccc2)c(CNCCCN2CCN(c3ccccc3Cl)CC2)o1
66.7% | 1710 nM | CCCc1nc(-c2ccccc2)c(CNCCN2CCN(c3cccc(C)c3C)CC2)o1

inhibition [1] | IC50 [2] | Structure (SMILES)
54.3% | 10200 nM | CCCc1nc(-c2ccccc2)c(CNCCN2CCN(c3ccccc3)CC2)o1
53.9% | 130000 nM | CCCc1nc(-c2ccccc2)c(CNCCCN2CCN(c3ccc(C)cc3)CC2)o1
57.3% | – | Cc1nc(-c2ccccc2)c(CNCCN2CCN(C(c3ccccc3)c3ccccc3)CC2)o1
58.7% | 1300 nM | CCCc1nc(-c2ccccc2)c(CNCCN2CCN(c3ccc(C(F)(F)F)cc3)CC2)o1
54.6% | 3020 nM | CCCc1nc(-c2ccccc2)c(CNCCCN2CCN(c3ccc(C)c(C)c3)CC2)o1
67.9% | 2220 nM | CCCc1nc(-c2ccccc2)c(CNCCN2CCN(c3ccc(C)c(C)c3)CC2)o1
40.2% | – | CCCc1nc(-c2ccccc2)c(CNCCN2CCN(c3cccc(OC)c3)CC2)o1
51.5% | 9200 nM | CCCc1nc(-c2ccccc2)c(CNCCN2CCN(c3ccc(OC)cc3)CC2)o1
60.1% | 4370 nM | CCCc1nc(-c2ccccc2)c(CNCCN2CCN(c3ccccc3Cl)CC2)o1
55.8% | 2820 nM | CCCc1nc(-c2ccccc2)c(CNCCN2CCN(c3ccc(Cl)cc3)CC2)o1
51.3% | 4300 nM | CCCc1nc(-c2ccccc2)c(CNCCN2CCN(c3ccccc3C)CC2)o1
36.4% | – | CCCc1nc(-c2ccccc2)c(CNCCCN2CCN(c3cccc(OC)c3)CC2)o1
62.3% | 3350 nM | CCCc1nc(-c2ccccc2)c(CNCCN2CCN(c3cccc(F)c3)CC2)o1
43.1% | – | CCCc1nc(-c2ccccc2)c(CNCCN2CCN(c3cccc(C)c3)CC2)o1
68.9% | 3030 nM | CCCc1nc(-c2ccccc2)c(CNCCCN2CCN(c3cccc(F)c3)CC2)o1
46.5% | – | CCCc1nc(-c2ccccc2)c(CNCCN2CCN(c3ccccc3F)CC2)o1
54.5% | 8750 nM | CCCc1nc(-c2ccccc2)c(CNCCCN2CCN(c3ccccc3C)CC2)o1
48.1% | – | CCCc1nc(-c2ccccc2)c(CNCCN2CCN(c3ccccn3)CC2)o1
65.9% | 1750 nM | CCCc1nc(-c2ccccc2)c(CNCCCN2CCN(c3cccc(Cl)c3)CC2)o1
56.3% | 1940 nM | CCCc1nc(-c2ccccc2)c(CNCCN2CCN(c3cccc(C(F)(F)F)c3)CC2)o1
